Source: patent US20170260178A1 (SPERO GYRASE, INC., priority 2012, published 2017)

What was measured:
[1] = system: H. influenzae (ATCC 49247); test: Bacterial assay: MIC against H. influenzae; type: cell-based; details: Haemophilus influenzae, ATCC49247; H. influenzae ATCC 49247; read-out: minimal inhibitory concentration (MIC)
S. aureus (ATCC 29213) = test: Bacterial assay: MIC against S. aureus; type: cell-based, Staphylococcus aureus; details: Staphylococcus aureus, ATCC29213, read-out: minimal inhibitory concentration (MIC)
S. pyogenes (ATCC 51339) = test: Bacterial assay: MIC against S. pyogenes; type: cell-based, Streptococcus pyogenes; details: Streptococcus pyogenes, ATCC51339, read-out: minimal inhibitory concentration (MIC)

Structure (SMILES)	MIC [1]	MIC (S. aureus (ATCC 29213))	MIC (S. pyogenes (ATCC 51339))
CCNC(=O)Nc1nc2cc(-c3cnc([C@@]4(O)CCOC[C@H]4O)nc3)cc(-c3ccccn3)c2s1 (relative stereo) [Compound 8, 1-[5-[2-[(3R*,4S*)-3,4-dihydroxytetrahydropyran-4-yl]pyrimidin-5-yl]-7-(2-pyridyl)-1,3-benzothiazol-2-yl]-3-ethyl-urea]	≤ 2 µg/mL	≤ 1 µg/mL	≤ 1 µg/mL
CCNC(=O)Nc1nc2cc(-c3cnc([C@@H](O)[C@@H](C)O)nc3)cc(-c3ccccn3)c2s1 (relative stereo) [Compound 118, 1-[5-[2-[(1R*,2R*)-1,2-dihydroxypropyl]pyrimidin-5-yl]-7-(2-pyridyl)-1,3-benzothiazol-2-yl]-3-ethyl-urea]	≤ 2 µg/mL	≤ 1 µg/mL	≤ 1 µg/mL
CCNC(=O)Nc1nc2cc(-c3cnc([C@@H](O)[C@H](O)C(F)F)nc3)cc(-c3ccccn3)c2s1 (relative stereo) [Compound 130, 1-[5-[2-[(1R*,2S*)-3,3-difluoro-1,2-dihydroxy-propyl]pyrimidin-5-yl]-7-(2-pyridyl)-1,3-benzothiazol-2-yl]-3-ethyl-urea]	≤ 2 µg/mL	≤ 1 µg/mL	≤ 1 µg/mL
CCNC(=O)Nc1nc2cc(-c3cnc([C@@H](O)[C@H](O)C(F)(F)F)nc3)cc(-c3ccccn3)c2s1 (relative stereo) [Compound 131, 1-ethyl-3-[7-(2-pyridyl)-5-[2-[(1R*,2S*)-3,3,3-trifluoro-1,2-dihydroxy-propyl]pyrimidin-5-yl]-1,3-benzothiazol-2-yl]urea]	≤ 2 µg/mL	≤ 1 µg/mL	≤ 1 µg/mL
CCNC(=O)Nc1nc2cc(-c3cnc(C(C)O)cn3)cc(-c3ccccn3)c2s1 (stereo not drawn) [Compound 6, 1-ethyl-3-[5-[5-(1-hydroxyethyl)pyrazin-2-yl]-7-(2-pyridyl)-1,3-benzothiazol-2-yl]urea]	≤ 2 µg/mL	≤ 1 µg/mL	≤ 1 µg/mL
CCNC(=O)Nc1nc2cc(-c3cnc(C(C)(C)O)nc3)cc(-c3ncccn3)c2s1 [Compound 10, 1-ethyl-3-[5-[2-(1-hydroxy-1-methyl-ethyl)pyrimidin-5-yl]-7-pyrimidin-2-yl-1,3-benzothiazol-2-yl]urea]	≤ 2 µg/mL	≤ 1 µg/mL	≤ 1 µg/mL
CCNC(=O)Nc1nc2cc(-c3cnc(C(C)O)nc3)cc(-c3cc(CSC)ccn3)c2s1 (stereo not drawn) [Compound 15, 1-ethyl-3-[5-[2-(1-hydroxyethyl)pyrimidin-5-yl]-7-[4-(methylsulfanylmethyl)-2-pyridyl]-1,3-benzothiazol-2-yl]urea]	≤ 2 µg/mL	≤ 1 µg/mL	≤ 1 µg/mL
CCNC(=O)Nc1nc2cc(-c3cnc([C@@H](C)O)nc3)cc(-c3ccccn3)c2s1 [Compound 22, 1-ethyl-3-[5-[2-[(1R)-1-hydroxyethyl]pyrimidin-5-yl]-7-(2-pyridyl)-1,3-benzothiazol-2-yl]urea]	≤ 2 µg/mL	≤ 1 µg/mL	≤ 1 µg/mL
CCNC(=O)Nc1nc2cc(-c3cnc([C@H](C)O)nc3)cc(-c3ccccn3)c2s1 [Compound 23, 1-ethyl-3-[5-[2-[(1S)-1-hydroxyethyl]pyrimidin-5-yl]-7-(2-pyridyl)-1,3-benzothiazol-2-yl]urea]	≤ 2 µg/mL	≤ 1 µg/mL	≤ 1 µg/mL
CCNC(=O)Nc1nc2cc(-c3ccc(C(C)(C)O)nc3)cc(-c3ccccn3)c2s1 [Compound 27, 1-ethyl-3-[5-[6-(1-hydroxy-1-methyl-ethyl)-3-pyridyl]-7-(2-pyridyl)-1,3-benzothiazol-2-yl]urea]	≤ 2 µg/mL	≤ 1 µg/mL	≤ 1 µg/mL
CCNC(=O)Nc1nc2cc(-c3cnc(C(C)(C)O)nc3)cc(-c3cc(CN4CCOCC4)ccn3)c2s1 [Compound 28, 1-ethyl-3-[5-[2-(1-hydroxy-1-methyl-ethyl)pyrimidin-5-yl]-7-[4-(morpholinomethyl)-2-pyridyl]-1,3-benzothiazol-2-yl]urea]	≤ 2 µg/mL	≤ 1 µg/mL	≤ 1 µg/mL
CCNC(=O)Nc1nc2cc(-c3cnc(C(C)(C)O)nc3)cc(-c3cc(CN4CC(O)C4)ccn3)c2s1 [Compound 30, 1-ethyl-3-[7-[4-[(3-hydroxyazetidin-1-yl)methyl]-2-pyridyl]-5-[2-(1-hydroxy-1-methyl-ethyl)pyrimidin-5-yl]-1,3-benzothiazol-2-yl]urea]	≤ 2 µg/mL	≤ 1 µg/mL	≤ 1 µg/mL
CCNC(=O)Nc1nc2cc(-c3cnc(C(C)(C)O)nc3)cc(-c3cc(CN4CC(OC)C4)ccn3)c2s1 [Compound 31, 1-ethyl-3-[5-[2-(1-hydroxy-1-methyl-ethyl)pyrimidin-5-yl]-7-[4-[(3-methoxyazetidin-1-yl)methyl]-2-pyridyl]-1,3-benzothiazol-2-yl]urea]	≤ 2 µg/mL	≤ 1 µg/mL	≤ 1 µg/mL
CCNC(=O)Nc1nc2cc(-c3cnc(C(C)(C)O)nc3)cc(-c3cc(OCCN4CCOCC4)ccn3)c2s1 [Compound 32, 1-ethyl-3-[5-[2-(1-hydroxy-1-methyl-ethyl)pyrimidin-5-yl]-7-[4-(2-morpholinoethoxy)-2-pyridyl]-1,3-benzothiazol-2-yl]urea]	≤ 2 µg/mL	≤ 1 µg/mL	≤ 1 µg/mL
CCNC(=O)Nc1nc2cc(-c3cnc(C(C)(C)O)nc3)cc(-c3cc(CN4CC[C@H](F)C4)ccn3)c2s1 [Compound 35, 1-ethyl-3-[7-[4-[[(3S)-3-fluoropyrrolidin-1-yl]methyl]-2-pyridyl]-5-[2-(1-hydroxy-1-methyl-ethyl)pyrimidin-5-yl]-1,3-benzothiazol-2-yl]urea]	≤ 2 µg/mL	≤ 1 µg/mL	≤ 1 µg/mL
CCNC(=O)Nc1nc2cc(-c3cnc(C(C)(C)O)nc3)cc(-c3cc(CN4CC[C@@H](F)C4)ccn3)c2s1 [Compound 36, 1-ethyl-3-[7-[4-[[(3R)-3-fluoropyrrolidin-1-yl]methyl]-2-pyridyl]-5-[2-(1-hydroxy-1-methyl-ethyl)pyrimidin-5-yl]-1,3-benzothiazol-2-yl]urea]	≤ 2 µg/mL	≤ 1 µg/mL	≤ 1 µg/mL
CCNC(=O)Nc1nc2cc(-c3cnc(C(C)(C)O)nc3)cc(-c3cc(OCCCN4CCOCC4)ccn3)c2s1 [Compound 38, 1-ethyl-3-[5-[2-(1-hydroxy-1-methyl-ethyl)pyrimidin-5-yl]-7-[4-(3-morpholinopropoxy)-2-pyridyl]-1,3-benzothiazol-2-yl]urea]	≤ 2 µg/mL	≤ 1 µg/mL	≤ 1 µg/mL
CCNC(=O)Nc1nc2cc(-c3cnc(C(C)(C)O)nc3)cc(-c3cnccn3)c2s1 [Compound 39, 1-ethyl-3-[5-[2-(1-hydroxy-1-methyl-ethyl)pyrimidin-5-yl]-7-pyrazin-2-yl-1,3-benzothiazol-2-yl]urea]	≤ 2 µg/mL	≤ 1 µg/mL	≤ 1 µg/mL
CCNC(=O)Nc1nc2cc(-c3cnc(C(O)CO)nc3)cc(-c3ccccn3)c2s1 (stereo not drawn) [Compound 40, 1-[5-[2-(1,2-dihydroxyethyl)pyrimidin-5-yl]-7-(2-pyridyl)-1,3-benzothiazol-2-yl]-3-ethyl-urea]	≤ 2 µg/mL	≤ 1 µg/mL	≤ 1 µg/mL
CCNC(=O)Nc1nc2cc(-c3cnc(C(C)(C)O)nc3)cc(-c3cc(C)ncn3)c2s1 [Compound 43, 1-ethyl-3-[5-[2-(1-hydroxy-1-methyl-ethyl)pyrimidin-5-yl]-7-(6-methylpyrimidin-4-yl)-1,3-benzothiazol-2-yl]urea]	≤ 2 µg/mL	≤ 1 µg/mL	≤ 1 µg/mL
CCNC(=O)Nc1nc2cc(-c3cnc(C(C)(C)O)nc3)cc(-c3cc(CNC4CC4)ccn3)c2s1 [Compound 53, 1-[7-[4-[(cyclopropylamino)methyl]-2-pyridyl]-5-[2-(1-hydroxy-1-methyl-ethyl)pyrimidin-5-yl]-1,3-benzothiazol-2-yl]-3-ethyl-urea]	≤ 2 µg/mL	≤ 1 µg/mL	≤ 1 µg/mL
CCNC(=O)Nc1nc2cc(-c3cnc(C(C)O)nc3)cc(-c3cc(CN4CCOCC4)ccn3)c2s1 (stereo not drawn) [Compound 55, 1-ethyl-3-[5-[2-(1-hydroxyethyl)pyrimidin-5-yl]-7-[4-(morpholinomethyl)-2-pyridyl]-1,3-benzothiazol-2-yl]urea]	≤ 2 µg/mL	≤ 1 µg/mL	≤ 1 µg/mL
CCNC(=O)Nc1nc2cc(-c3cnc(C(C)(C)O)nc3)cc(-c3ccc(OCCN4CCOCC4)cn3)c2s1 [Compound 56, 1-ethyl-3-[5-[2-(1-hydroxy-1-methyl-ethyl)pyrimidin-5-yl]-7-[5-(2-morpholinoethoxy)-2-pyridyl]-1,3-benzothiazol-2-yl]urea]	≤ 2 µg/mL	≤ 1 µg/mL	≤ 1 µg/mL
CCNC(=O)Nc1nc2cc(-c3cnc(C(O)C4CC4)nc3)cc(-c3ccccn3)c2s1 (stereo not drawn) [Compound 58, 1-[5-[2-[cyclopropyl(hydroxy)methyl]pyrimidin-5-yl]-7-(2-pyridyl)-1,3-benzothiazol-2-yl]-3-ethyl-urea]	≤ 2 µg/mL	≤ 1 µg/mL	≤ 1 µg/mL
CCNC(=O)Nc1nc2cc(-c3cnc(C(O)CC)nc3)cc(-c3ccccn3)c2s1 (stereo not drawn) [Compound 59, 1-ethyl-3-[5-[2-(1-hydroxypropyl)pyrimidin-5-yl]-7-(2-pyridyl)-1,3-benzothiazol-2-yl]urea]	≤ 2 µg/mL	≤ 1 µg/mL	≤ 1 µg/mL
CCCC(O)c1ncc(-c2cc(-c3ccccn3)c3sc(NC(=O)NCC)nc3c2)cn1 (stereo not drawn) [Compound 61, 1-ethyl-3-[5-[2-(1-hydroxybutyl)pyrimidin-5-yl]-7-(2-pyridyl)-1,3-benzothiazol-2-yl]urea]	≤ 2 µg/mL	≤ 1 µg/mL	≤ 1 µg/mL
CCNC(=O)Nc1nc2cc(-c3cnc([C@@H](C)OC(=O)[C@H](N)C(C)C)nc3)cc(-c3ccccn3)c2s1 [Compound 62, [(1R)-1-[5-[2-(ethylcarbamoylamino)-7-(2-pyridyl)-1,3-benzothiazol-5-yl]pyrimidin-2-yl]ethyl] (2R)-2-amino-3-methyl-butanoate]	≤ 2 µg/mL	≤ 1 µg/mL	≤ 1 µg/mL
